Test results taken from article PMC11354909, “Preclinical Evaluation of Soluble Epoxide Hydrolase Inhibitor AMHDU against Neuropathic Pain” (International Journal of Molecular Sciences, 2024).
Where “and” joins values, the source holds several entries; their conditions need not be identical. Equal values may be shown once. Entries after “also recorded” stand apart in the source; their conditions may differ. Read-outs that look alike come from different tables or passages of the source.

Assays:
rat paw edema model = test: Freund's adjuvant rat paw edema model (anti-inflammatory activity); type: in vivo; settings: for effect on paw edema (reduction of exudative reaction): day 4
[1] = tested on: pain threshold of inflamed paw, adjuvant inflammation; test: Randall–Selitto test in adjuvant inflammation (analgesic activity); type: in vivo, rat
[2] = tested on: STZ-rat neuropathic pain model; test: Tactile allodynia (von Frey) in streptozotocin diabetic polyneuropathy; type: in vivo
Procedure: To evaluate the effect of the compound on the development of neuropathic pain, tactile hyperalgesia was evaluated in diabetic polyneuropathy in rats with 2-week streptozotocin-induced diabetes (35 mg/kg intraperitoneally). Only animals with developed allodynia and hyperalgesia were taken into the experiment, with 50% pain response indices not exceeding 6 g. Groups were formed randomly (n = 6). Tactile allodynia in rats was assessed by registering the pressure at which the animals jerked the right hind paw, avoiding exposure to stimuli of increasing degree. VonFrey hairs, which are 20 monofilaments of nylon filaments of different diameters attached to plastic handles, were applied to the right hind paw in turn from below through the mesh. The comparison drug gabapentin as well as the test compound AMHDU dissolved in 10% DMSO was administered intraperitoneally in 10 mg/kg dose 60 min. before the experiment. An equivalent volume of solvent was administered to control animals. The experiment was started with a monofilament labeled 4.31. If there was no response after 5 incidents of touching, the monofilament was successively changed to the next monofilament with higher strength. […] The 50% threshold of paw retraction during successive increases and decreases in stimulus strength was determined using the UP-AND-DOWN method.

[3] = Pharmacokinetic study, intraperitoneal injection; type: in vivo, male Swiss–Webster mice
Procedure: Animal experiments were approved by the Animal Use and Care Committee of University of California, Davis. Compounds were formulated in 5% EtOH, 95% PEG400 at a concentration of 0.25 mg/mL. […] […] For compound detection in plasma, 10 µL whole blood was sampled by tail nick and transferred immediately to 50 µL water containing 0.1% EDTA. Samples were extracted as previously described and stored at −20 °C until analysis. Samples were analysed by LC-MS/MS on an Agilent SL 1200 series LC system (Agilent, Palo Alto, CA, USA) connected to a 4000 Qtrap mass spectrometer (Applied Biosystems Instrument Corporation, Foster City, CA, USA) with Turbo V ion source. Liquid chromatography was performed on a Kinetex R© C18 column (100 × 2.1 mm, 1.7 μm). The mass spectrometer was operated in positive modes with primary MRM scan of 499.377/143.153 and secondary scans of 499.377/149.190 and 499.377/166.204. Peaks were integrated using Analyst software v 1.6.3 (Ab Sciex, Washington, DC, USA) and quantified against a standard curve as previously described.

[4] = Acute oral toxicity (OECD test No. 423); settings: for Adrenal glands mass ratio to whole body weight / Brain mass ratio to whole body weight / Heart mass ratio to whole body weight / Kidneys mass ratio to whole body weight / Liver mass ratio to whole body weight / Lungs mass ratio to whole body weight / Ovaries mass ratio to whole body weight / Spleen mass ratio to whole body weight / Thymus mass ratio to whole body weight: 2 weeks after single intragastric dose, m ± SD
Procedure: The acute toxicity of the substance by intragastric administration to female outbred rats was studied; the toxicity class, tolerated, toxic, lethal doses and character of toxic effect were determined according to the OECD test No. 423.
Experiments were performed on sexually mature laboratory white mongrel female rats, divided into experimental and control groups. Experimental animals were administered the AMHDU substance diluted in 50% dimethyl sulfoxide solution in the recommended GOST 32644-2014 initial dose of 300 mg/kg (n = 6), as well as the maximum dose of 2000 mg/kg (n = 3) in the maximum allowable volume of 20 mL/kg once intra-gastrically. Control animals (n = 6) were injected with dimethyl sulfoxide diluted 1:1 with purified water at volumes identical to those of the experimental animals. The animals were monitored for 2 weeks, continuously for the first 4 h after injection. Routine necropsy of all surviving animals was performed on day 15.

[5] = target: soluble epoxide hydrolase (sEH); parameters: method as in PMID 24685540; settings: slow tight binding sEH inhibitor; cited from earlier work
[6] = individual animals No. 1-4, i.p., table dose 1 mg/kg, 1 mg/kg

O=C(NCCCCCCNC(=O)NCC12CC3CC(CC(C3)C1)C2)NCC12CC3CC(CC(C3)C1)C2 [AMHDU, 1,1′-(hexane-1,6-diyl)bis(3-((adamantan-1-yl)methyl)urea)]
effect on the volume of the affected limb (paw edema) (rat paw edema model; 5 mg/kg i.p. 2 times a day for 4 days, day 4 after adjuvant): no significant effect | reduction of the primary exudative reaction (paw edema) (rat paw edema model; 30 mg/kg i.p. 2 times a day for 4 days, day 4 after adjuvant): no statistically significant reduction | anti-inflammatory effect (overall conclusion) (rat paw edema model; 5 and 30 mg/kg i.p.): lacks anti-inflammatory activity; also recorded: negligible anti-inflammatory effect | effect on pain threshold ([1]; 5 mg/kg i.p. 2 times a day for 4 days): no significant suppression of the pain threshold | increase of paw-pulling threshold ([1]; 30 mg/kg i.p. 2 times a day for 4 days): 38% | analgesic activity compared with reference drugs ([1]; AMHDU 30 mg/kg i.p. vs celecoxib 10 mg/kg, dexamethasone 5 mg/kg): superior to both dexamethasone and celecoxib | analgesic activity compared with gabapentin ([2]; 10 mg/kg i.p. both drugs): comparable to standard of care gabapentin | pain threshold relative to the control group ([2]; 10 mg/kg i.p., 60 min before the experiment): 1.5 times | compound left in the bloodstream ([3]; 4 h after injection, i.p. 1.25 mg/kg): none is left in the bloodstream | AUC ([3]; Swiss-Webster, mouse, whole blood, ip, i.p. 1.25 mg/kg, male mice): 26 ng·h/mL | half-life ([3]; Swiss-Webster, mouse, whole blood, ip, i.p. 1.25 mg/kg, male mice, read-out: half-life (Thalf)): ~0.167 h | AUClast [3, 6]: 24 ng·h/mL and 35 ng·h/mL and 31 ng·h/mL and 16 ng·h/mL | Cmax [3, 6]: 24.32 ng/mL and 53.00 ng/mL and 31.93 ng/mL and 30.86 ng/mL | MRT [3, 6]: 1.51 h and 1.04 h and 1.08 h and 0.55 h | Thalf [3, 6]: 0.18 h and 0.16 h and 0.13 h and 0.15 h | Tmax [3, 6]: 2.0 h and 0.5 h | Thalf ([3]; m ± SE of 4 mice, i.p.): 0.16 ± 0.02 h | AUC(0-t) ([3]; male, Swiss-Webster, mouse, whole blood, ip, 1.25 mg/kg, m ± SE of 4 mice): 26.4 ± 8.6 ng·h/mL | Cmax ([3]; male, Swiss-Webster, mouse, whole blood, ip, 1.25 mg/kg, m ± SE of 4 mice, i.p., read-out: Cmax): 35 ± 12.4 ng/mL | MRT ([3]; male, Swiss-Webster, mouse, whole blood, ip, 1.25 mg/kg, m ± SE of 4 mice, i.p., read-out: MRT): ~1 h | Tmax ([3]; male, Swiss-Webster, mouse, whole blood, ip, 1.25 mg/kg, mean of 4 mice, i.p., read-out: Tmax): 1 h | Adrenal glands mass ratio, change compared to control group ([4]; 300 mg/kg, 2 weeks): –8.5% | Brain mass ratio, change compared to control group ([4]; 300 mg/kg, 2 weeks): –0.1% | Heart mass ratio, change compared to control group ([4]; 300 mg/kg, 2 weeks): –6.4% | Kidneys mass ratio, change compared to control group ([4]; 300 mg/kg, 2 weeks): –3.1% | Liver mass ratio, change compared to control group ([4]; 300 mg/kg, 2 weeks): 2.1% | Lungs mass ratio, change compared to control group ([4]; 300 mg/kg, 2 weeks): –3.5% | Ovaries mass ratio, change compared to control group ([4]; 300 mg/kg, 2 weeks): –1.0% | Spleen mass ratio, change compared to control group ([4]; 300 mg/kg, 2 weeks): 0.5% | Thymus mass ratio, change compared to control group ([4]; 300 mg/kg, 2 weeks): –4.1% | Adrenal glands mass ratio to whole body weight ([4]; 300 mg/kg): 0.04 ± 0.004% | Brain mass ratio to whole body weight ([4]; 300 mg/kg): 0.72 ± 0.02% | Heart mass ratio to whole body weight ([4]; 300 mg/kg): 0.33 ± 0.01% | Kidneys mass ratio to whole body weight ([4]; 300 mg/kg): 0.62 ± 0.02% | Liver mass ratio to whole body weight ([4]; 300 mg/kg): 3.03 ± 0.12% | Lungs mass ratio to whole body weight ([4]; 300 mg/kg): 0.60 ± 0.04% | Ovaries mass ratio to whole body weight ([4]; 300 mg/kg): 0.05 ± 0.003% | Spleen mass ratio to whole body weight ([4]; 300 mg/kg): 0.48 ± 0.01% | Thymus mass ratio to whole body weight ([4]; 300 mg/kg): 0.17 ± 0.03% | Adrenal glands mass ratio, change compared to control group ([4]; 2000 mg/kg, 2 weeks): –14.4% | Brain mass ratio, change compared to control group ([4]; 2000 mg/kg, 2 weeks): –0.3% | Heart mass ratio, change compared to control group ([4]; 2000 mg/kg, 2 weeks): –10.4% | Kidneys mass ratio, change compared to control group ([4]; 2000 mg/kg, 2 weeks): 0.4% | Liver mass ratio, change compared to control group ([4]; 2000 mg/kg, 2 weeks): –6.4% | Lungs mass ratio, change compared to control group ([4]; 2000 mg/kg, 2 weeks): –10.7% | Ovaries mass ratio, change compared to control group ([4]; 2000 mg/kg, 2 weeks): 18.3% | Spleen mass ratio, change compared to control group ([4]; 2000 mg/kg, 2 weeks): –9.9% | Thymus mass ratio, change compared to control group ([4]; 2000 mg/kg, 2 weeks): –11.0% | Adrenal glands mass ratio to whole body weight ([4]; 2000 mg/kg): 0.03 ± 0.003% | Brain mass ratio to whole body weight ([4]; 2000 mg/kg): 0.72 ± 0.02% | Heart mass ratio to whole body weight ([4]; 2000 mg/kg): 0.32 ± 0.01% | Kidneys mass ratio to whole body weight ([4]; 2000 mg/kg): 0.64 ± 0.03% | Liver mass ratio to whole body weight ([4]; 2000 mg/kg): 2.77 ± 0.41% | Lungs mass ratio to whole body weight ([4]; 2000 mg/kg): 0.56 ± 0.03% | Ovaries mass ratio to whole body weight ([4]; 2000 mg/kg): 0.06 ± 0.01% | Spleen mass ratio to whole body weight ([4]; 2000 mg/kg): 0.43 ± 0.02% | Thymus mass ratio to whole body weight ([4]; 2000 mg/kg): 0.16 ± 0.01% | necropsy: architectonics of internal organs location ([4]; day 15 after intragastric 300 and 2000 mg/kg): no pathological changes | toxicity class according to the GHS classification ([4]; female, outbred white mongrel, rat, in vivo, 2 weeks): class 5 | LD50 at 2 weeks ([4]; female, outbred white mongrel, rat, in vivo, po, LD50 (acute oral toxicity), intragastric, female rats): > 2000 mg/kg | LD50 (acute oral toxicity) ([4]; intragastric, female rats): 2000 to 5000 mg/kg | death in early and distant periods of observation ([4]; single intragastric limit dose 2000 mg/kg, 2 weeks observation): does not contribute to death | IC50 [5]: 0.5 nM | Ki [5]: 3.1 nM

Cc1ccc(-c2cc(C(F)(F)F)nn2-c2ccc(S(N)(=O)=O)cc2)cc1 [celecoxib, reference compound]
effect on paw edema (reduction of exudative reaction) (rat paw edema model; celecoxib 10 mg/kg i.p. 2 times a day for 4 days): 51%

C[C@@H]1C[C@H]2[C@@H]3CCC4=CC(=O)C=C[C@]4(C)[C@@]3(F)[C@@H](O)C[C@]2(C)[C@@]1(O)C(=O)CO [dexamethasone, reference compound]
effect on paw edema (reduction of exudative reaction) (rat paw edema model; dexamethasone 5 mg/kg i.p. 2 times a day for 4 days): 65%
